Laboratory results taken from ChEMBL document CHEMBL5136992, “Fascinating Transformation of SAM-Competitive Protein Methyltransferase Inhibitors from Nucleoside Analogues to Non-Nucleoside Analogues” (J Med Chem, 2022).
In brackets after ≈: the same amount, converted by molar mass. Values belong to the molecule of their own block, whether it stands above or below them.

How the values were obtained:
[1] = target: T1, Histone-lysine N-methyltransferase SMYD3 (Homo sapiens, UniProt Q9H7B4); assay: Inhibition of SMYD3 (unknown origin)
T1 sequence (Q9H7B4 whole entry): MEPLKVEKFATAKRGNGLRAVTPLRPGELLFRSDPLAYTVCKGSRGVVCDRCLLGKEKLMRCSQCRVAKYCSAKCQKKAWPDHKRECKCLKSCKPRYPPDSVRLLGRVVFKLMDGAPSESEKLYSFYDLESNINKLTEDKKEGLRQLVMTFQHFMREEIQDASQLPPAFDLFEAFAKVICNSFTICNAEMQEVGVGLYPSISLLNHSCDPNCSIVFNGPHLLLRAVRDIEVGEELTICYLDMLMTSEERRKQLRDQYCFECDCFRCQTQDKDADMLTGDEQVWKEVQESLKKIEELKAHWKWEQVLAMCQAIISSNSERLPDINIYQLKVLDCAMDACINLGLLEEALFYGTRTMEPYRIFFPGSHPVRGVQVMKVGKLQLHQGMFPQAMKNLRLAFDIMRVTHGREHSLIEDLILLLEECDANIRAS

[2] = target: T2, Histone-lysine N-methyltransferase EZH2 (Homo sapiens, UniProt Q15910); assay: Inhibition of wild type EZH2 (unknown origin)
T2 sequence (Q15910 whole entry): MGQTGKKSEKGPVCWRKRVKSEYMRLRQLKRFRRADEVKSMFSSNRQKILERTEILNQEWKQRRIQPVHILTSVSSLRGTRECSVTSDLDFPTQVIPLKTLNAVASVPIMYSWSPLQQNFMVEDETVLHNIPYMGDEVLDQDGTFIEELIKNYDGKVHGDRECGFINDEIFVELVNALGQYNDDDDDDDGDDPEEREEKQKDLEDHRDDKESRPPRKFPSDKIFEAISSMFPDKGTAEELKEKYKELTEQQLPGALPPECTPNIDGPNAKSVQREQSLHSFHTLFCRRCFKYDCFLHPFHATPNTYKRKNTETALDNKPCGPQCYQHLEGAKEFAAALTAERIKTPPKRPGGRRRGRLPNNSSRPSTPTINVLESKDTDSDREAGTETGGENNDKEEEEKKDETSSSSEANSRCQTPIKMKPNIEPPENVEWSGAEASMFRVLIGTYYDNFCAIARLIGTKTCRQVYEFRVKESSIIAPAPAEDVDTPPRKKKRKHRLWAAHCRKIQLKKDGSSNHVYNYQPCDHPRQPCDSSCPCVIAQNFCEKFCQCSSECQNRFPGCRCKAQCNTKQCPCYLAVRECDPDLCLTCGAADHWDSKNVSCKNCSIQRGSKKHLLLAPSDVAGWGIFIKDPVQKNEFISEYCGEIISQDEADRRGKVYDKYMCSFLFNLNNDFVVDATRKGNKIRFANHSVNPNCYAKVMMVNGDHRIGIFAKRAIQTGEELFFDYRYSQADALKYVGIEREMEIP

[3] = target: T3, Histone-lysine N-methyltransferase EZH2 (Homo sapiens, UniProt Q15910, Y641N); assay: Inhibition of EZH2 Y641N mutant (unknown origin)
T3 sequence (Q15910 whole entry Y641N): as the sequence (Q15910 whole entry) above, with Y641N counted along it

[4] = target: Protein arginine N-methyltransferase 5 (Homo sapiens, UniProt O14744); assay: Binding affinity to PRMT5 (unknown origin) assessed as inhibition constant
[5] = target: T3, Histone-lysine N-methyltransferase EZH2; assay: Binding affinity to EZH2 Y641N mutant (unknown origin) assessed as inhibition constant
[6] = Aqueous solubility of the compound; type: physicochemical; conditions: buffer
[7] = target: T4, Histone-lysine N-methyltransferase, H3 lysine-79 specific (Homo sapiens, UniProt Q8TEK3); assay: Inhibition of DOT1L (unknown origin)
T4 sequence (Q8TEK3 whole entry): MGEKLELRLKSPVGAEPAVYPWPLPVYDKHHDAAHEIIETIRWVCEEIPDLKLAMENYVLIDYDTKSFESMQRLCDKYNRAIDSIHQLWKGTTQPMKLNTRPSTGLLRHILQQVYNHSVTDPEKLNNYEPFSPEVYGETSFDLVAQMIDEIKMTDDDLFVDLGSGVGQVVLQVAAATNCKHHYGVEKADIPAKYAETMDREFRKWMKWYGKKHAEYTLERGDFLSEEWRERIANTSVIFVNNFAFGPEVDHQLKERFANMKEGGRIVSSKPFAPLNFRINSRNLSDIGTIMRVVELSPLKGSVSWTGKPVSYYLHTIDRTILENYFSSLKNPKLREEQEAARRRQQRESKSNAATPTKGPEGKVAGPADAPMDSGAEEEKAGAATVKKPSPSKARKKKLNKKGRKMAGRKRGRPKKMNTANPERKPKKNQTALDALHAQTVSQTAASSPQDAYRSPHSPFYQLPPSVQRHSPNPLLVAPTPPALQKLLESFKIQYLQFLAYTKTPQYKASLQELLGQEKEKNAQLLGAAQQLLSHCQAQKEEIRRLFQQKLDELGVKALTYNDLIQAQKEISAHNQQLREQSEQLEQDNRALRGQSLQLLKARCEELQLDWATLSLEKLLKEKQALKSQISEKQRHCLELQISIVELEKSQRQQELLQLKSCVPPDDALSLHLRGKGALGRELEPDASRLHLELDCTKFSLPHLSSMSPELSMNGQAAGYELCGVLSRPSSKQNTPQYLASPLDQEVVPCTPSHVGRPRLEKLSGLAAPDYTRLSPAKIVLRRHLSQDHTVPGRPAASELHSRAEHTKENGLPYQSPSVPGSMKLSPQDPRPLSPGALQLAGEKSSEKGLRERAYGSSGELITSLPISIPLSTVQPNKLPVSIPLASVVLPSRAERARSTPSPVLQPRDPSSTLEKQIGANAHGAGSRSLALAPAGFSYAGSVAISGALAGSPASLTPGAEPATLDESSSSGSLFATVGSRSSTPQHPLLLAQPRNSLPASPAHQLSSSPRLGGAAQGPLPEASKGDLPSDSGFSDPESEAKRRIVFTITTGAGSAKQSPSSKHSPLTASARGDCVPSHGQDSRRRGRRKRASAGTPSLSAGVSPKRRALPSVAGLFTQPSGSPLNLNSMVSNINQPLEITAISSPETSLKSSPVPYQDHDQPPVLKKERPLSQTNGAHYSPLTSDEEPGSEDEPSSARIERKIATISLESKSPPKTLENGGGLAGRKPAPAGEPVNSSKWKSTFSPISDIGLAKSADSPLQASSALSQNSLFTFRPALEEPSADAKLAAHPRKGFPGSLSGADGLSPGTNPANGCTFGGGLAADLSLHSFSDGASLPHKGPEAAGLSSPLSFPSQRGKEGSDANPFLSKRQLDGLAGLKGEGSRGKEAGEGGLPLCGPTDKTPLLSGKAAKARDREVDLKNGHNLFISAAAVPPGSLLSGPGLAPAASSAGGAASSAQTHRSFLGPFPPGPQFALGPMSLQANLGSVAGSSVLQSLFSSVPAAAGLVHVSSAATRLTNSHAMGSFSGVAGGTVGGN

[8] = target: T5, Histone-lysine N-methyltransferase SETD7 (Homo sapiens, UniProt Q8WTS6); assay: Inhibition of SET7 (unknown origin)
T5 sequence (Q8WTS6 whole entry): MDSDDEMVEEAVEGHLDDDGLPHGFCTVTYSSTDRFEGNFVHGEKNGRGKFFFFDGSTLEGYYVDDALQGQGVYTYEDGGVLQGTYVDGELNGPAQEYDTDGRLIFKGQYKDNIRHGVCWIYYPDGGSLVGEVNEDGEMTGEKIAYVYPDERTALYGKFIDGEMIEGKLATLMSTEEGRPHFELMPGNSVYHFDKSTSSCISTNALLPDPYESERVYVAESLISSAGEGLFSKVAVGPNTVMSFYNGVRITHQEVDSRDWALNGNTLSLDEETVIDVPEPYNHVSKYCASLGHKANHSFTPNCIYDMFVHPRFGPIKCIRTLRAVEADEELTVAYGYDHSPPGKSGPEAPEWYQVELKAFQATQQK

[9] = target: T6, Histone-lysine N-methyltransferase EHMT1 (Homo sapiens, UniProt Q9H9B1); assay: Inhibition of EHMT1 (unknown origin)
T6 sequence (Q9H9B1 whole entry): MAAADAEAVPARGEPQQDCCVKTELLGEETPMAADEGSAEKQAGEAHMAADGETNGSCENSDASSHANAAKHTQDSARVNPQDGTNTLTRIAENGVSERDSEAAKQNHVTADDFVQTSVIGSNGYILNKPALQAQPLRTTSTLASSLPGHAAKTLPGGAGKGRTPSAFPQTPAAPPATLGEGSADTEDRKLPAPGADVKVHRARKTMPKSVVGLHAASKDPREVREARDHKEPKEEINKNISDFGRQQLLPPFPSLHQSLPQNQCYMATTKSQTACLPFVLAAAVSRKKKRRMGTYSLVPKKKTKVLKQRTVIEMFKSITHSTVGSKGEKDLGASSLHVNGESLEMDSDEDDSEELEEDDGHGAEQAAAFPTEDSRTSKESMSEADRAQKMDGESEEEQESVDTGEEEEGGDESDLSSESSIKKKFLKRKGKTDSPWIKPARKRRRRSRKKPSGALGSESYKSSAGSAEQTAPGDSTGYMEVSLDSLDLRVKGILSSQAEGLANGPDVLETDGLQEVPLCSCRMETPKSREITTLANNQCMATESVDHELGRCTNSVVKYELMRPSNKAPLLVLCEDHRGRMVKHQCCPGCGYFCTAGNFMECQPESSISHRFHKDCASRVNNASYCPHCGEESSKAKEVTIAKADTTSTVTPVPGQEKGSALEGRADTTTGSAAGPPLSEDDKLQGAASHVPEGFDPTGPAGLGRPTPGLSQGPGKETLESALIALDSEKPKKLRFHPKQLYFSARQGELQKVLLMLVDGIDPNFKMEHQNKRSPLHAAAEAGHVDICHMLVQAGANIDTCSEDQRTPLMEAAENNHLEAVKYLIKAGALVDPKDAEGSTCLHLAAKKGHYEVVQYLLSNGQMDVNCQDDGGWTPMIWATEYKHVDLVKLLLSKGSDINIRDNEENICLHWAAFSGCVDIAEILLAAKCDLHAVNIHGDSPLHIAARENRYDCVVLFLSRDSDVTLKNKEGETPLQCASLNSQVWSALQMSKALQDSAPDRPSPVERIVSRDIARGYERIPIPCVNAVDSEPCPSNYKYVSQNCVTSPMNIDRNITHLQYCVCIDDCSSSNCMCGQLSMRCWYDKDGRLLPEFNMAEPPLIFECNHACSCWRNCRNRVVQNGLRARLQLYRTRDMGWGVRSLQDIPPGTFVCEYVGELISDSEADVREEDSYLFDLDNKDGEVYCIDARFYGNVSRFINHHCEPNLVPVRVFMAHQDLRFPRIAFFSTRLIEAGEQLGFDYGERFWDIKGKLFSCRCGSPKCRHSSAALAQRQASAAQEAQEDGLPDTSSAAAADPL

[10] = target: T7, Protein arginine N-methyltransferase 7 (Homo sapiens, UniProt Q9NVM4); assay: Inhibition of PRMT7 (unknown origin)
T7 sequence (Q9NVM4 whole entry): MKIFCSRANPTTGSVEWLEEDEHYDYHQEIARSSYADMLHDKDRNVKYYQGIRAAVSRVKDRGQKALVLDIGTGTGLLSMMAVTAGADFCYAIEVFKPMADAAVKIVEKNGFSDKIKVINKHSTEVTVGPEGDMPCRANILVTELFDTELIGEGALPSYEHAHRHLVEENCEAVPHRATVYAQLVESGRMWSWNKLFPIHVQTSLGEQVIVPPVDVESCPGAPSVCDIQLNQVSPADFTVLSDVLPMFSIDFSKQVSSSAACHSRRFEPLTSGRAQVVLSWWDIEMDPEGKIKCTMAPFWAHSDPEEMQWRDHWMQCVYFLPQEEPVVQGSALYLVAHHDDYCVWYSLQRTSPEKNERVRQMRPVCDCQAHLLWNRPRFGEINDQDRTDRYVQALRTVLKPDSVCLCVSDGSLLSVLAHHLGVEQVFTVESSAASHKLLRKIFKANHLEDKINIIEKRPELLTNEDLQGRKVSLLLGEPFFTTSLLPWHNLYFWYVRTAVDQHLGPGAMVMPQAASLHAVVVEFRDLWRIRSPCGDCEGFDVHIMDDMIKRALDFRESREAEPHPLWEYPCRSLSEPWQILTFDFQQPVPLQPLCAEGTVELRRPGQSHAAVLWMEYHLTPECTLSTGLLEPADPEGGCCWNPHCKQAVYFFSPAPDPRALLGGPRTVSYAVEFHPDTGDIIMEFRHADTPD

[11] = target: Histone-lysine N-methyltransferase SETD2 (Homo sapiens, UniProt Q9BYW2); assay: Inhibition of SETD2 (unknown origin)
Chain of Histone-lysine N-methyltransferase SETD2 (Q9BYW2 whole entry): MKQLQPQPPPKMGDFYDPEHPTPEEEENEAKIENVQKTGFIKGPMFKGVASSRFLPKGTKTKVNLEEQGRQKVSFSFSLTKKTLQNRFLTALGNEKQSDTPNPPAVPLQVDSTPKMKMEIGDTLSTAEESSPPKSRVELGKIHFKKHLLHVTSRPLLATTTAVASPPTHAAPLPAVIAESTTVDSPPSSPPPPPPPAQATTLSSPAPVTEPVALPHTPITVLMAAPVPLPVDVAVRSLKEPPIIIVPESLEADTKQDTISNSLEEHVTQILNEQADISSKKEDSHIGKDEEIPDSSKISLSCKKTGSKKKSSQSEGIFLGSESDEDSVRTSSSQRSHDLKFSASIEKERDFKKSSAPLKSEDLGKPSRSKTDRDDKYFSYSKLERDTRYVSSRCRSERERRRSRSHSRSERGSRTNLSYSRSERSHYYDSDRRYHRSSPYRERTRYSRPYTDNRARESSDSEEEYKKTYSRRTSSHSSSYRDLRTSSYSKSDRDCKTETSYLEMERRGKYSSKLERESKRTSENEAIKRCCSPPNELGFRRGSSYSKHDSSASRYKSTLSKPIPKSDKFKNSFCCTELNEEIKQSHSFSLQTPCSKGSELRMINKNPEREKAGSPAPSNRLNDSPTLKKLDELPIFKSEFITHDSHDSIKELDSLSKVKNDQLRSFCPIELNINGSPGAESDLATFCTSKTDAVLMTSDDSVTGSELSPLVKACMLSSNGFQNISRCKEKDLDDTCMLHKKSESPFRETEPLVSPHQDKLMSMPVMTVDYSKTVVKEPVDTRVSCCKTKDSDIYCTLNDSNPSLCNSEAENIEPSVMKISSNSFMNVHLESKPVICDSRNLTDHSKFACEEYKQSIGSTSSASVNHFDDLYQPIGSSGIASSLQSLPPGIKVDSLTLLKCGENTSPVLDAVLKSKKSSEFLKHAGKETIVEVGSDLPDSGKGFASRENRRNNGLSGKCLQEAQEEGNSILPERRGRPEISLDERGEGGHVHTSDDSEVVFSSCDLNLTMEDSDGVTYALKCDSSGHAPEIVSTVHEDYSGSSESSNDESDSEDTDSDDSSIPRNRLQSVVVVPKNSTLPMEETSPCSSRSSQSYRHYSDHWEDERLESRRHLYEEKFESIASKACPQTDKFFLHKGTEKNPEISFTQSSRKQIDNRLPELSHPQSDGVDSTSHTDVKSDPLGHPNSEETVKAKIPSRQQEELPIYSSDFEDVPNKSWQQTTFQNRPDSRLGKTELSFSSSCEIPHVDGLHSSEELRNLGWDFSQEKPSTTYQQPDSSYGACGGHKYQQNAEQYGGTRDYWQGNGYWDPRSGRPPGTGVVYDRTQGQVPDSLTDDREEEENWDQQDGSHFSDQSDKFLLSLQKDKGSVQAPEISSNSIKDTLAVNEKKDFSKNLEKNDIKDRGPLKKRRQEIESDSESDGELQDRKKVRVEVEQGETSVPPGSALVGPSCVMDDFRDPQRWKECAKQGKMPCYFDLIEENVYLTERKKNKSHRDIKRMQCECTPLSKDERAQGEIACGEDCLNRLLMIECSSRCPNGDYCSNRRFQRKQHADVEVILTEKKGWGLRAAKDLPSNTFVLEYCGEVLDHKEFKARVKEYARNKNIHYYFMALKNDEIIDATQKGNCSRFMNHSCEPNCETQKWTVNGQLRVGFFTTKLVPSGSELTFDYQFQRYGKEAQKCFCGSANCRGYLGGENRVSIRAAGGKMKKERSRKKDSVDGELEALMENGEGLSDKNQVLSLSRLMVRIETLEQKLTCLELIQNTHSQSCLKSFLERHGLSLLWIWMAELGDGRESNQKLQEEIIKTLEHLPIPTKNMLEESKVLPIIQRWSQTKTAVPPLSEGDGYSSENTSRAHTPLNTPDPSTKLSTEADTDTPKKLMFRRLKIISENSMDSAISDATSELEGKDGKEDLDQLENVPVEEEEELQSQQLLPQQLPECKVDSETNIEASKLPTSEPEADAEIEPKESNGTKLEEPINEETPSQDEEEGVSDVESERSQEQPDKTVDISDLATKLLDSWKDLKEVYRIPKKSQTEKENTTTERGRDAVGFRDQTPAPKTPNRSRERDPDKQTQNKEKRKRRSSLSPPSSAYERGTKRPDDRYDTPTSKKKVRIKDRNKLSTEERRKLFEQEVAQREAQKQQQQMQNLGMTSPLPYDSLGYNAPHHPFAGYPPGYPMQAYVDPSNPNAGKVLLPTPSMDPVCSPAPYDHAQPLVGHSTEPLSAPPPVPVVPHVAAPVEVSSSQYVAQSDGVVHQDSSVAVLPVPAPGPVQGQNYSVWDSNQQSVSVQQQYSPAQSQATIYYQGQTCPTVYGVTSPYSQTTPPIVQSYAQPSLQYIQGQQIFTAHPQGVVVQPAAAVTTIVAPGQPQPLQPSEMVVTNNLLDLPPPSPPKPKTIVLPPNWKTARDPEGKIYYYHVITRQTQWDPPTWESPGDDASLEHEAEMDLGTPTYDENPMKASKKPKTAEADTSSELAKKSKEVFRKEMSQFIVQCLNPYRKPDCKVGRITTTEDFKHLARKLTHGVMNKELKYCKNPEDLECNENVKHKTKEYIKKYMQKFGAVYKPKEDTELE

[12] = target: T2, Histone-lysine N-methyltransferase EZH2; assay: Inhibition of EZH2 (unknown origin)
[13] = target: T2, Histone-lysine N-methyltransferase EZH2; assay: Binding affinity to EZH2 (unknown origin) assessed as inhibition constant
[14] = Microsomal stability in rat liver microsomes assessed as remaining compound after 1 hr incubation; type: ADME, Microsome; conditions: read-out: Stability
MV4-11 = assay: Antiproliferative activity against human MV4-11 cells; type: functional, cell-based
[15] = target: T4, Histone-lysine N-methyltransferase, H3 lysine-79 specific; assay: Inhibition of human recombinant DOT1L by methyltransferase-Glo Bioluminescent assay
[16] = target: T8, Histone-arginine methyltransferase CARM1 (Homo sapiens, UniProt Q86X55); assay: Inhibition of PRMT4 (unknown origin)
T8 sequence (Q86X55 whole entry): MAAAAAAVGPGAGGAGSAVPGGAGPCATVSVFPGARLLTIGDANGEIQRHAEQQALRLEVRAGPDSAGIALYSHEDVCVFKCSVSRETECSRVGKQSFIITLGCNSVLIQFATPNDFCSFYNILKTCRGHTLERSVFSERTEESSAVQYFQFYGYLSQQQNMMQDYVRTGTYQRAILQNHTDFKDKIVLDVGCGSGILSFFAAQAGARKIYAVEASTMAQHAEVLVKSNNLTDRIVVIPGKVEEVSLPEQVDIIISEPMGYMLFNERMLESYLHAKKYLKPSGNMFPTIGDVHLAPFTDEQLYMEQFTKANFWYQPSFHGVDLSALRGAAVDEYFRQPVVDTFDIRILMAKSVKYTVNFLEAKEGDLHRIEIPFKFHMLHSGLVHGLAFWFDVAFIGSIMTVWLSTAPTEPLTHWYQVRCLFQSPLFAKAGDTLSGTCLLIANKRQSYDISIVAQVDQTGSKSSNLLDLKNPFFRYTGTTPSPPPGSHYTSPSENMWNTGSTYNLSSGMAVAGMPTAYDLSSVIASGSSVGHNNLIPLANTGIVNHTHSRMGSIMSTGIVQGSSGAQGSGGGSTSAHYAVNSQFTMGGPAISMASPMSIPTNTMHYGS

[17] = target: T9, Histone-lysine N-methyltransferase EHMT2 (Homo sapiens, UniProt Q96KQ7); assay: Inhibition of G9a (unknown origin)
T9 sequence (Q96KQ7 whole entry): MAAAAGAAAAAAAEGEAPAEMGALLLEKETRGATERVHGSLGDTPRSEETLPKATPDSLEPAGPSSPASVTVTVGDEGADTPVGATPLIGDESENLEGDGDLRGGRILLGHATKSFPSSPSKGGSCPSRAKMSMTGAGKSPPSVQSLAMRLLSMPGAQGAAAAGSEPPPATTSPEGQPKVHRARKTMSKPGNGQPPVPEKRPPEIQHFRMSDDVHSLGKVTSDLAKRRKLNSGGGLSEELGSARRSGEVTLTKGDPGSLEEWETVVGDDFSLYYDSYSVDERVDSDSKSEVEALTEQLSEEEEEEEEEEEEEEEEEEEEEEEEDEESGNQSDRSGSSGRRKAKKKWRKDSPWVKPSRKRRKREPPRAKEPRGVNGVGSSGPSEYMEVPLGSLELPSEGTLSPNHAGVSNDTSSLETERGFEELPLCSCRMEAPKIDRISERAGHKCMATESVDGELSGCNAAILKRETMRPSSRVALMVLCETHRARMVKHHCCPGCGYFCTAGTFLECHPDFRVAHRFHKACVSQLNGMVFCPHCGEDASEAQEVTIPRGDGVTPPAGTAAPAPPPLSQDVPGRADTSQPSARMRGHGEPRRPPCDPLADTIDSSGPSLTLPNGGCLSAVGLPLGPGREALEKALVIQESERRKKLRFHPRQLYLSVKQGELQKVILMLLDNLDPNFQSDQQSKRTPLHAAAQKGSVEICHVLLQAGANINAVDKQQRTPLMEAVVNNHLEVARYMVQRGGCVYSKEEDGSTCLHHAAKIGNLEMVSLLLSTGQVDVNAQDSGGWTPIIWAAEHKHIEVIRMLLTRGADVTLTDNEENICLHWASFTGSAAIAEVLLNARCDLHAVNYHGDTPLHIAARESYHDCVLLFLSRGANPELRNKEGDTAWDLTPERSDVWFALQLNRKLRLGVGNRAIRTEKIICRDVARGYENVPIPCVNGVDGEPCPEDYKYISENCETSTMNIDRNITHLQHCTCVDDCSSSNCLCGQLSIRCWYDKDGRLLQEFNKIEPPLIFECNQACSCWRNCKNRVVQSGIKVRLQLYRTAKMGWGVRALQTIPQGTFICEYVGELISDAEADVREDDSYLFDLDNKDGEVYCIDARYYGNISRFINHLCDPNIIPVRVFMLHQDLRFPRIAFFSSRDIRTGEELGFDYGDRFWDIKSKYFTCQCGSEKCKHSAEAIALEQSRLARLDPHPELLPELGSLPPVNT

IC50 [1]: 130 nM
Compound: CN(C)CCCN(CC[C@H](N)C(=O)O)C[C@@H]1O[C@H](n2cnc3c(N)ncnc32)[C@@H](O)[C@H]1O

Ki [4]: 0.02 nM
Compound: Nc1ncnc2c1ccn2[C@H]1O[C@@H]([C@H](O)c2ccc(Cl)c(F)c2)[C@H](O)[C@@H]1O

IC50 [7]: 26000 nM
IC50 [8]: 2500 nM
IC50 [9]: 513000 nM
Compound: Nc1ncnc2c1ncn2[C@H]1O[C@@H](C[C@H](N)CC[C@H](N)C(=O)O)[C@H](O)[C@@H]1O

IC50 [10]: < 2.5 nM
Compound: Nc1ncnc2c1ncn2[C@@H]1O[C@H](CSCCCCNCc2cccc(-c3ccc(Cl)cc3)c2)[C@@H](O)[C@H]1O

IC50 [11]: 800 nM
Compound: CCCN(CC[C@H](N)C(=O)O)C[C@@H]1O[C@H](n2cnc3c(N)ncnc32)[C@@H](O)[C@H]1O

remaining at 1 h [14]: 24%
Compound: COc1cccc(CCNC(=O)[C@H](CC[C@@H](CNCc2ccccc2)C[C@H]2O[C@@H](n3cnc4c(N)ncnc43)[C@H](O)[C@@H]2O)NC(=O)CC(C)(C)C2=C(C)C(=O)C(C)=C(C)C2=O)c1

IC50 [15]: 399 nM
Compound: COc1cc([C@H]2Oc3c(O)cc(CCCO)cc3[C@@H]2CO)ccc1O[C@@H]1O[C@@H](C)[C@@H](O)[C@@H](O)[C@H]1O

Further lines, the molecule ahead of its results:

Compound: CCC(CC)n1ncc2c(C(=O)NCc3c(C)cc(C)[nH]c3=O)cc(C#N)cc21
IC50 [2]: 15 nM
IC50 [3]: 13 nM

Compound: CO[C@@H](c1cc(Cl)c2c(c1Cl)C(=O)N(Cc1c(C)cc(C)[nH]c1=O)CC2)C1COC1
Ki [5]: < 0.1 nM
solubility [6]: 315 µg/mL (≈ 698 µM)

Compound: Cc1coc2c1C(=O)C(=O)c1c-2ccc2c1CC[C@@H](O)[C@]2(C)O
IC50 [12]: 550 nM
Ki [13]: 194 nM

Compound: Cc1cc(Nc2ccc3nc(C)cc(N)c3c2)nc(Nc2ccc3nc(C)cc(N)c3c2)n1
IC50 (MV4-11): 37100 nM

Compound: Nc1ncnc2c1ncn2[C@H]1O[C@@H](CN(CCI)CCC[C@H](N)C(=O)O)[C@H](O)[C@@H]1O
IC50 [16]: 1100 nM
IC50 [17]: 1800 nM
